From US11447493B2 (Kinnate Biopharma Inc., priority 2018, dated 2022)
pIC50: −log10 of the molar value.

Key:
Experiment in all cases: Radiometric protein kinase assay (33PanQinase), Assay Condition A (thiol containing)
Type in all cases: biochemical
[1] = molecular target: CDK12 wt/CycK (Homo sapiens (Human), UniProt Q9NYV4); conditions: thiol containing (1.2 mM DTT), ATP 0.3 μM
Procedure: (§1) The IC50 profile of test compounds was determined using three protein kinases.
(§2) The compounds were provided as pre-weighed powders in vials. The compounds were dissolved to 1×10^−02M by adding DMSO. 100 μl of each of the resulting stock solutions were transferred into column 2 of four 96 well “master plates”.
(§3) Prior to testing, the 1×10^−02M stock solutions in column 2 of the master plates were subjected to a serial, semi-logarithmic dilution using 100% DMSO as a solvent. […] Column 1 and 7 were filled with 100% DMSO as controls. Subsequently, 2×10 μl from each well of the serial diluted copy plates were aliquoted with a 96 channel pipettor into two identical sets of “compound dilution plates”.
(§4) In the process, 90 μl H2O were added to each well of a set of compound dilution plates. To minimize potential precipitation, the H2O was added to each plate only a few minutes before the transfer of the compound solutions into the assay plates. Each plate was shaken thoroughly, resulting in a “compound dilution plate/10% DMSO”.
(§5) For the assays, 5 μl solution from each well of the compound dilution plates/10% DMSO were transferred into the assay plates. The final volume of the assay was 50 μl. All compounds were tested at 10 final assay concentrations in the range from 1×10^−04M to 3×10^−09M, in singlicate. The final DMSO concentration in the reaction cocktails was 1% in all cases.
(§6) All protein kinases were expressed in Sf9 insect cells or in E. coli as recombinant GST-fusion proteins or His-tagged proteins, either as full-length or enzymatically active fragments. All kinases were produced from human cDNAs and purified by either GSH-affinity chromatography or immobilized metal. Affinity tags were removed from a number of kinases during purification. The purity of the protein kinases was examined by SDS-PAGE/Coomassie staining, the identity was checked by mass spectroscopy.
(§7) A radiometric protein kinase assay (^33PanQinase® Activity Assay) was used for measuring the kinase activity of the three protein kinases. All kinase assays were performed in 96-well FlashPlates™ from PerkinElmer (Boston, Mass., USA) in a 50 μl reaction volume. The reaction cocktail was pipetted in four steps in the following order: • 20 μl of assay buffer (standard buffer) • 5 μl of ATP solution (in H2O) • 5 μl of test compound (in 10% DMSO) • 20 μl enzyme/substrate mix
(§8) The reaction cocktails were incubated at 30° C. for 60 minutes. The reaction was stopped with 50 μl of 2% (v/v) H3PO4, plates were aspirated and washed two times with 200 μl 0.9% (w/v) NaCl. Incorporation of ^33Pi was determined with a microplate scintillation counter (Microbeta, Wallac). All assays were performed with a BeckmanCoulter/SAGIAN™ Core System.
(§9) The median value of the counts in column 1 (n=8) of each assay plate was defined as “low control”. This value reflects unspecific binding of radioactivity to the plate in the absence of a protein kinase but in the presence of the substrate. The median value of the counts in column 7 of each assay plate (n=8) was taken as the “high control”, i.e. full activity in the absence of any inhibitor. The difference between high and low control was taken as 100% activity.
(§10) As part of the data evaluation the low control value from a particular plate was subtracted from the high control value as well as from all 80 “compound values” of the corresponding plate. The residual activity (in %) for each well of a particular plate was calculated by using the following formula: Res. Activity (%)=100×[(cpm of compound−low control)/(high control−low control)]
(§11) The residual activities for each concentration and the compound IC50 values were calculated using Quattro Workflow V3.1.1 (Quattro Research GmbH, Munich, Germany). […] The fitting method used was a least-squares fit.

[2] = molecular target: CDK2/CycA2 (Homo sapiens (Human), UniProt P24941); conditions: thiol containing (1.2 mM DTT), ATP 0.3 μM
Procedure: as §1, §2, §3, §4, §5, §6, §7, §8, §9, §10, §11

[3] = molecular target: CDK7/CycH/MAT1 (Homo sapiens (Human), UniProt P50613); conditions: thiol containing (1.2 mM DTT), ATP 3.0 μM
Procedure: as §1, §2, §3, §4, §5, §6, §7, §8, §9, §10, §11

Sequence of CDK12 wt/CycK (Q9NYV4 whole entry): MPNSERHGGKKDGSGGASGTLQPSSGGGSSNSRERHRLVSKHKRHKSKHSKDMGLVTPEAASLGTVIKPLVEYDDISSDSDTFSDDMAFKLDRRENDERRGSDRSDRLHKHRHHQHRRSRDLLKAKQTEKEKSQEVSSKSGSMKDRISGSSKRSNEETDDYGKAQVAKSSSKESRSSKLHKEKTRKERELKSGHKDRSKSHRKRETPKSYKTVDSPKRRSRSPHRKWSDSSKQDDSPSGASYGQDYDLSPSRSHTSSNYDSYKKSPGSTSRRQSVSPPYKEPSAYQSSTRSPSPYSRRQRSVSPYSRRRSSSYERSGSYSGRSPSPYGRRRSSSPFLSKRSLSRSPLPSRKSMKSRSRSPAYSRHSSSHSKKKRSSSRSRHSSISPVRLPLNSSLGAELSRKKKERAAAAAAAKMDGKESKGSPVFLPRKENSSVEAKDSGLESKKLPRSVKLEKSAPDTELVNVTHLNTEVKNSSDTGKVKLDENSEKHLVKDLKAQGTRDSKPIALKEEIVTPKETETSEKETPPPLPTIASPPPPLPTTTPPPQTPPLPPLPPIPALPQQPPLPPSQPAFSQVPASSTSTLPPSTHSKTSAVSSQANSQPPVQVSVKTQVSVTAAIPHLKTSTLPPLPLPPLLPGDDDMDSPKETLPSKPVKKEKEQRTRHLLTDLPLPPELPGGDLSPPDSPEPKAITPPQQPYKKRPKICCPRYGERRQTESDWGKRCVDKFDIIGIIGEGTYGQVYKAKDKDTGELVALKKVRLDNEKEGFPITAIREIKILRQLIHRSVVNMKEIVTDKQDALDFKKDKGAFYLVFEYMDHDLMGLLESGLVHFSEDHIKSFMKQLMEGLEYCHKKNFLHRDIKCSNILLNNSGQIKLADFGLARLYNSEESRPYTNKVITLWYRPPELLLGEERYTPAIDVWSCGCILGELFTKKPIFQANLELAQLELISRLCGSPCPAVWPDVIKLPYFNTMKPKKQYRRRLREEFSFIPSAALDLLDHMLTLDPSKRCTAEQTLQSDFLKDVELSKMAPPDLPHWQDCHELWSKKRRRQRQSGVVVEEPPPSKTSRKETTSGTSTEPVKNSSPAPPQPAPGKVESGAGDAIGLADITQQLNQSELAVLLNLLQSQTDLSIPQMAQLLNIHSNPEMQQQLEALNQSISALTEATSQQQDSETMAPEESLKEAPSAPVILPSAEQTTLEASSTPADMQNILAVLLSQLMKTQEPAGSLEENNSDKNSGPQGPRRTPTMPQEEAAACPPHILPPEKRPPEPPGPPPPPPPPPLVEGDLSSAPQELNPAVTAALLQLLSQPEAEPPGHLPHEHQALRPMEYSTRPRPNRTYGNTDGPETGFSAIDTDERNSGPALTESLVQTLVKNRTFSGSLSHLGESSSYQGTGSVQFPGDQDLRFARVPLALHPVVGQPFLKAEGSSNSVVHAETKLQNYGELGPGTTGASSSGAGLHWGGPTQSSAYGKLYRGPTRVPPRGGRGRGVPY
Sequence of CDK12 wt/CycK (O75909 whole entry partner): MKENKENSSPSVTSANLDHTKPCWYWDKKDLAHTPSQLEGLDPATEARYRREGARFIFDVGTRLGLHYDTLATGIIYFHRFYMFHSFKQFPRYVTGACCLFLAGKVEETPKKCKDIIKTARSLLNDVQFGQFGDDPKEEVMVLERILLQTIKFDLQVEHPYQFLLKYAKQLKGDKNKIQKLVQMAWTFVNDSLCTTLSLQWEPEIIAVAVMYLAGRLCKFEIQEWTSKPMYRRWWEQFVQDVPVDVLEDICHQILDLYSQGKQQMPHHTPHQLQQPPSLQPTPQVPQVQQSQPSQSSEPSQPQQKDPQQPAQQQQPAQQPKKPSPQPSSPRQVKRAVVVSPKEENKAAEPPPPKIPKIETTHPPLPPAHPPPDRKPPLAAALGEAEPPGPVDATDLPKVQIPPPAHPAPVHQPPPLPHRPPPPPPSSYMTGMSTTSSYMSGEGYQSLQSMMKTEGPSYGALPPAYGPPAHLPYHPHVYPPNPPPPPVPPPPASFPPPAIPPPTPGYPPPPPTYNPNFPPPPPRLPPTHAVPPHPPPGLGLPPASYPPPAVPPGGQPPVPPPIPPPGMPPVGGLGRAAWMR
Sequence of CDK7/CycH/MAT1 (P50613 whole entry): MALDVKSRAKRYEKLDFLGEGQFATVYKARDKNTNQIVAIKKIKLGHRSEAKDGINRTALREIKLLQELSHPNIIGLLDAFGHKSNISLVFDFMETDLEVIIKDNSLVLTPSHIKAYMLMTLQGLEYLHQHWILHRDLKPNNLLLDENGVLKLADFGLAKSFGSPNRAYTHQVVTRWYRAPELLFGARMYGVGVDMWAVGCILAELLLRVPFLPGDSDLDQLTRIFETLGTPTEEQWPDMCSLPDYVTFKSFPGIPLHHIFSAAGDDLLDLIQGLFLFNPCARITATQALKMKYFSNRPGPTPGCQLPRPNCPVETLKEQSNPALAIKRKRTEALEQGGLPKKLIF
Sequence of CDK7/CycH/MAT1 (P51946 whole entry partner): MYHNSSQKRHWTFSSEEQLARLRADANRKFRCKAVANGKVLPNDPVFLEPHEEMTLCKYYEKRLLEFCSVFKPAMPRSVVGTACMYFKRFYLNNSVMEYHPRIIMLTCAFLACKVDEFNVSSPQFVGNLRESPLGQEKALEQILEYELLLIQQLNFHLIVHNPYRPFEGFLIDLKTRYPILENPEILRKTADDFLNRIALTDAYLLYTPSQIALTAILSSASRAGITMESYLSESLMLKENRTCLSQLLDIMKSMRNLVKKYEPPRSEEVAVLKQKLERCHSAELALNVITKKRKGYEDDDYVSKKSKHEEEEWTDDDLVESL
Sequence of CDK7/CycH/MAT1 (P51948 whole entry partner): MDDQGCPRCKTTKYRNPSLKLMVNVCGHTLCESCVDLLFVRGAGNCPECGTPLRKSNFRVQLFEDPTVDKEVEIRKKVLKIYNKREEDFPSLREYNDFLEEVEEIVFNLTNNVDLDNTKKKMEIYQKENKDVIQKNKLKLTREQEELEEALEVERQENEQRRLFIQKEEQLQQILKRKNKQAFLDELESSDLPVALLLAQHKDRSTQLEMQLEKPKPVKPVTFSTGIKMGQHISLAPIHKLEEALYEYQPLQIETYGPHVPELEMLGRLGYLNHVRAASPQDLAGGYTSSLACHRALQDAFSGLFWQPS

SMILES	pIC50 [1]	pIC50 [2]	pIC50 [3]
C=CC(=O)Nc1ccc(C(=O)N2CCC[C@@H](Nc3ncc4ccccc4n3)C2)cc1 [Example 1, (R)-N-(4-(3-(quinazolin-2-ylamino)piperidine-1-carbonyl)phenyl)acrylamide]	5.00 to 6.00	–	–
C=CC(=O)Nc1ccc(C(=O)N2CCC[C@@H](Nc3ncc4ccc(F)cc4n3)C2)cc1 [Example 5, (R)-N-(4-(3-((7-fluoroquinazolin-2-yl)amino)piperidine-1-carbonyl)phenyl)acrylamide]	5.00 to 6.00	4.00 to 4.52	4.00 to 4.52
C=CC(=O)Nc1ccc(C(=O)N2CCC[C@@H](Nc3ncc4cc(OC)ccc4n3)C2)cc1 [Example 7, (R)-N-(4-(3-((6-methoxyquinazolin-2-yl)amino)piperidine-1-carbonyl)phenyl)acrylamide]	4.00 to 4.52	4.00 to 4.52	4.00 to 4.52
C=CC(=O)Nc1ccc(C(=O)N2CCC[C@@H](Nc3ncc4cc(C)ccc4n3)C2)cc1 [Example 8, (R)-N-(4-(3-((6-methylquinazolin-2-yl)amino)piperidine-1-carbonyl)phenyl)acrylamide]	4.52 to 5.00	4.00 to 4.52	4.00 to 4.52
C=CC(=O)Nc1ccc(C(=O)N2CCC[C@@H](Nc3ncc4ccc(C)cc4n3)C2)cc1 [Example 9, (R)-N-(4-(3-((7-methylquinazolin-2-yl)amino)piperidine-1-carbonyl)phenyl)acrylamide]	4.52 to 5.00	4.00 to 4.52	4.00 to 4.52
C=CC(=O)Nc1ccc(C(=O)N2CCC[C@@H](Nc3ncc4ccc(S(C)(=O)=O)cc4n3)C2)cc1 [Example 11, (R)-N-(4-(3-((7-(methylsulfonyl)quinazolin-2-yl)amino)piperidine-1-carbonyl)phenyl)acrylamide]	5.00 to 6.00	4.52 to 5.00	4.00 to 4.52
C=CC(=O)Nc1ccc(C(=O)N2CCC[C@@H](Nc3ncc4ccc(C(N)=O)cc4n3)C2)cc1 [Example 13, (R)-2-((1-(4-acrylamidobenzoyl)piperidin-3-yl)amino)quinazoline-7-carboxamide]	6.00 to 7.00	5.00 to 6.00	4.52 to 5.00
C=CC(=O)Nc1ccc(C(=O)N2CCC[C@@H](Nc3ncc4ccc(C(=O)O)cc4n3)C2)cc1 [Example 14, (R)-2-((1-(4-acrylamidobenzoyl)piperidin-3-yl)amino)quinazoline-7-carboxylic acid]	6.00 to 7.00	5.00 to 6.00	4.52 to 5.00
C=CC(=O)Nc1ccc(C(=O)N2CCC[C@@H](Nc3ncc4ccc(=O)n(C(C)C)c4n3)C2)cc1 [Example 15, (R)-N-(4-(3-((8-isopropyl-7-oxo-7,8-dihydropyrido[2,3-d]pyrimidin-2-yl)amino)piperidine-1-carbonyl)phenyl)acrylamide]	5.00 to 6.00	4.52 to 5.00	4.00 to 4.52
C=CC(=O)Nc1ccc(C(=O)N2CCC[C@@H](Nc3ncc4ccc(=O)[nH]c4n3)C2)cc1 [Example 16, (R)-N-(4-(3-((7-oxo-7,8-dihydropyrido[2,3-d]pyrimidin-2-yl)amino)piperidine-1-carbonyl)phenyl)acrylamide]	4.52 to 5.00	4.00 to 4.52	4.00 to 4.52
CCC(=O)Nc1ccc(C(=O)N2CCC[C@@H](Nc3ncc4ccccc4n3)C2)cc1 [Example 17, (R)-N-(4-(3-(quinazolin-2-ylamino)piperidine-1-carbonyl)phenyl)propionamide]	4.00 to 4.52	4.00 to 4.52	4.00 to 4.52
C=CC(=O)Nc1ccc(C(=O)N2CC[C@@H](Nc3ncc4ccc(C(=O)NC)cc4n3)C2)cc1 [Example 58, (R)-2-((1-(4-acrylamidobenzoyl)pyrrolidin-3-yl)amino)-N-methylquinazoline-7-carboxamide]	–	–	6.00 to 7.00
C=CC(=O)Nc1ccc(C(=O)N2CC[C@@H](Nc3ncc4ccccc4n3)C2)cn1 [Example 67, (R)—N-(5-(3-(quinazolin-2-ylamino)pyrrolidine-1-carbonyl)pyridin-2-yl)acrylamide]	–	–	6.00 to 7.00
C=CC(=O)Nc1ccc(C(=O)N2CC[C@@H](Nc3ncc4cc(F)ccc4n3)C2)cc1F [Example 69, (R)—N-(2-fluoro-4-(3-((6-fluoroquinazolin-2-yl)amino)pyrrolidine-1-carbonyl)phenyl)acrylamide]	≥ 7.00	5.00 to 6.00	–
C#CC(=O)Nc1ccc(C(=O)N2CC[C@@H](Nc3ncc4ccccc4n3)C2)cc1 [Example 70, (R)—N-(4-(3-(quinazolin-2-ylamino)pyrrolidine-1-carbonyl)phenyl)propiolamide]	≥ 7.00	6.00 to 7.00	–
C=CC(=O)Nc1ccc(C(=O)N2CC[C@@H](Nc3ncc4ccccc4n3)C2)c(OC)c1 [Example 73, (R)—N-(3-methoxy-4-(3-(quinazolin-2-ylamino)pyrrolidine-1-carbonyl)phenyl)acrylamide]	6.00 to 7.00	–	–
C=CC(=O)N1CCCc2cc(C(=O)N3CC[C@@H](Nc4ncc5ccccc5n4)C3)ccc21 [Example 79, (R)-1-(6-(3-(quinazolin-2-ylamino)pyrrolidine-1-carbonyl)-3,4-dihydroquinolin-1(2H)-yl)prop-2-en-1-one]	≥ 7.00	5.00 to 6.00	–

Now from value to molecule:

pIC50 [1]	pIC50 [2]	pIC50 [3]	SMILES
5.00 to 6.00	4.00 to 4.52	4.00 to 4.52	C=CC(=O)Nc1ccc(C(=O)N2CCC[C@@H](Nc3cc4ccccc4cn3)C2)cc1 [Example 2, (R)-N-(4-(3-(isoquinolin-3-ylamino)piperidine-1-carbonyl)phenyl)acrylamide]
5.00 to 6.00	4.00 to 4.52	4.00 to 4.52	C=CC(=O)Nc1ccc(C(=O)N2CCC[C@@H](Nc3ncc4cc(Cl)ccc4n3)C2)cc1 [Example 3, (R)-N-(4-(3-((6-chloroquinazolin-2-yl)amino)piperidine-1-carbonyl)phenyl)acrylamide]
5.00 to 6.00	4.00 to 4.52	4.00 to 4.52	C=CC(=O)Nc1ccc(C(=O)N2CCC[C@@H](Nc3ncc4cc(F)ccc4n3)C2)cc1 [Example 4, (R)-N-(4-(3-((6-fluoroquinazolin-2-yl)amino)piperidine-1-carbonyl)phenyl)acrylamide]
4.52 to 5.00	4.00 to 4.52	4.00 to 4.52	C=CC(=O)Nc1ccc(C(=O)N2CCC[C@@H](Nc3ncc4ccc(OC)cc4n3)C2)cc1 [Example 6, (R)-N-(4-(3-((7-methoxyquinazolin-2-yl)amino)piperidine-1-carbonyl)phenyl)acrylamide]
5.00 to 6.00	4.00 to 4.52	4.00 to 4.52	C=CC(=O)Nc1ccc(C(=O)N2CCC[C@@H](Nc3ncc4ccc(Cl)cc4n3)C2)cc1 [Example 10, (R)-N-(4-(3-((7-chloroquinazolin-2-yl)amino)piperidine-1-carbonyl)phenyl)acrylamide]
4.52 to 5.00	4.00 to 4.52	4.00 to 4.52	CCC(=O)Nc1ccc(C(=O)N2CCC[C@@H](Nc3cc4ccccc4cn3)C2)cc1 [Example 18, (R)-N-(4-(3-(isoquinolin-3-ylamino)piperidine-1-carbonyl)phenyl)propionamide]
4.00 to 4.52	4.00 to 4.52	4.00 to 4.52	CCC(=O)Nc1ccc(C(=O)N2CCC[C@@H](Nc3ncc4cc(Cl)ccc4n3)C2)cc1 [Example 19, (R)-N-(4-(3-((6-chloroquinazolin-2-yl)amino)piperidine-1-carbonyl)phenyl)propionamide]
≥ 7.00	–	–	C=CC(=O)Nc1ccc(C(=O)N2CC[C@@H](Nc3ncc4ccccc4n3)C2)cc1OC [Example 71, (R)—N-(2-methoxy-4-(3-(quinazolin-2-ylamino)pyrrolidine-1-carbonyl)phenyl)acrylamide]
